Test results from patent US20170226139A1, “CRYSTALLINE SALTS OF (Z)-O-OCTADEC-9-EN-1-YL O,O-DIHYDROGEN PHOSPHOROTHIOATE” (priority 2013, published 2017).
pEC50: −log10 of the molar value. Like-named read-outs stand apart in the source and are kept apart here.

Tests used:
LPA5 = target: T1, LPA5 (Homo sapiens, UniProt Q9H1C0); assay: Calcium-mobilization assay (FURA-2), LPA5 in B103 neuroblastoma cells; format: cell-based
T1 construct: expressed in transfected cells; host or cells: B103 rat neuroblastoma
Protocol: We investigated structure-activity relationships across species, LPAR subtypes and between Rx100 and two known process impurities encountered in manufacture: Rx103 (‘E’ isomer) and Rx200 (oleyl phosphate and impurity, which can be an Rx100 degradant along with oleyl alcohol). Rx100, Rx103, Rx200 and native LPA were investigated at different human LPAR subtypes. In addition, the activity of these compounds was evaluated at LPA2 receptors from the rhesus, rat and mouse species. Human LPA1/2/3 subtypes were transfected into mouse embryonic fibroblasts (MEF) or rat hepatoma cells (RH7777)—both of which are normally non-responsive or null to LPA. Human LPA4 was transfected into Chinese hamster ovary (CHO) cells and LPA5 into the B103 neuroblastoma cell line. […] The B103 rat neuroblastoma cell line is endogenously nonresponsive to LPA but expresses heterologous LPA5 receptors well. […] LPAR activation elicits a G-protein-mediated transient rise in intracellular calcium level that is proportional to the concentration of LPA applied. The intracellular calcium level was quantified by the calcium-selective fluorescent indicator FURA-2 (e.g., increased intracellular calcium surge=increased fluorescence).

[1] = Short term (24 hour) slurry tests, XRPD of wet and dried solids; format: physicochemical; details: minimum 24 hours, 15 solvent systems, 25 and 50° C., wet and dried solids
Protocol: Second, short term slurry tests were performed. Rx100.L-Lysine salt was slurried for a minimum of 24 hours in 15 different solvent systems at two different temperatures (25 and 50° C.) in an attempt to provide information for crystallization experiments and design of polymorph screening experiments. A 48 position Chemglass reaction block was used for heating and stirring the slurries which were in 2 mL HPLC vials. After the due time, vials were centrifuged and the wet solids were used for X-ray diffraction. […]

Sprague-Dawley rats = assay: Single-dose (and 7-day) subcutaneous toxicity in rats; format: in vivo
Protocol: In the second phase of the study, animals (n=3/sex/group) received 25 mg/kg/day for seven consecutive days with injections being rotated between two sites. Parameters evaluated included clinical signs, body weight, and gross pathology.

[2] = Single subcutaneous dose pharmacokinetics in irradiated and unirradiated mice; format: in vivo, C57BL/6 mice; details: single SC dose 1 mg/kg, 1 mg/kg; for AUC(0-inf): read-out: AUCINF_obs
From the text: We performed a randomized, open-label, single-dose, four-arm, subcutaneously-administered, study of the pharmacokinetics of Rx100.Ammonia and Rx100.Lysine in irradiated and unirradiated C57BL/6 mice to evaluate the effect of salt form and irradiation on extravascular pharmacokinetics. The purpose of this study was to evaluate the pharmacokinetic parameters for two salt forms of Rx100 (Lysine and Ammonia) in healthy and PB irradiated (IR) mice when administered as a single dose. Each animal received a 1 mg/kg dose of Rx100.Lysine or Rx100.Ammonia. The animals receiving Rx100.Lysine or Rx100.Ammonia after irradiation were dosed 26±2 hours after irradiation and sampling times are relative to the time of test article dosing.
More specifically, randomized, acclimated, C57BL/6 mice were administered Rx100.Lysine or Rx100.Ammonia (10 mM L-histidine in sterile water for injection, or 1% ethanol, 2% propylene glycol in PBS, respectively) as a single dose as indicated in Table 25.
Blood was collected from 4 male and 4 female mice via cardiac puncture at pre-defined time points relative to test article dosing (0.5, 1, 2, 4, 6, 8, 12, 18, 24, and 48 hours) and collected into micro plasma separator vials (BD Microtainer®) containing lithium heparin. Blood was maintained on ice until centrifugation and subsequent processing. Blood draws were a terminal procedure. Plasma was frozen at −80° C. until submitted for bioanalysis. Sample collection was completed in September 2012. Samples were transferred to Covance in December 2013, and sample analysis was complete in the first quarter of 2014.
A total of 160 male and 160 female C57BL/6 10-12 week old mice were used in this study. Animals were randomized with weight stratification into treatment groups and given a second ear tag. Animals were acclimated for 16-19 days (See below Table 26). Prior to irradiation or dosing (in non-irradiated groups), animals were weighed a second time which was the basis of the animal dose delivered.
TLDs were used for dosimetry and confirmation of the delivered dose. TLDs were analyzed by MD Anderson and have a +/−5% accuracy. A total of 19 dosimeters were used with a mean measured dose of 15.33±0.166 Gy.
Analysis was performed using qualified and validated Phoenix® WinNonlin® Software. The final data provided was imported into Phoenix® WinNonlin®. All data presented in the tables and figures within the results section of this report were generated using the validated Phoenix® WinNonlin® Software.

[3] = + IR (irradiated mice), whole group (not split by gender), listed as Rx100.Lysine
[4] = healthy mice, F, listed as Rx100.Lysine
[5] = healthy mice, M, listed as Rx100.Lysine
[6] = healthy mice, whole group (not split by gender), listed as Rx100.Lysine
[7] = irradiated mice (15.6 Gy, dosed 26 ± 2 h after), F, listed as Rx100.Lysine
[8] = irradiated mice (15.6 Gy, dosed 26 ± 2 h after), M, listed as Rx100.Lysine

T1 sequence (Q9H1C0 whole entry): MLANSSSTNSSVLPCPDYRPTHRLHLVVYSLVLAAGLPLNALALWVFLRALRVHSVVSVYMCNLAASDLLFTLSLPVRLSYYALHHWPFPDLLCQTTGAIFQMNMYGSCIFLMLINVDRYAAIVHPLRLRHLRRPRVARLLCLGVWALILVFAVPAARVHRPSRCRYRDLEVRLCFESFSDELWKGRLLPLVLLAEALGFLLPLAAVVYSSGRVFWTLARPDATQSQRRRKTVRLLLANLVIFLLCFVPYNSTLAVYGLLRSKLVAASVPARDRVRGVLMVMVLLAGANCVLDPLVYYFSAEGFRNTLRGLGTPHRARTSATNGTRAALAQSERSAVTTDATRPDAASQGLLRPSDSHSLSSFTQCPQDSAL

Question: With `CCCCCCCC/C=C\CCCCCCCCOP(O)(O)=S` [Rx100, (Z)—O-octadec-9-en-1-yl O,O-dihydrogen phosphorothioate] as the molecule, how does the pEC50 (LPA5) read?
Answer: Its pEC50 is 7.00.

Question: What about the Emax (LPA5; B103, read-out: Emax (% of LPA)) of the same molecule?
Answer: The Emax was 104%.

Question: For `CCCCCCCC/C=C\CCCCCCCCOP(O)(O)=S` [Rx100.L-Lysine, (Z)—O-octadec-9-en-1-yl O,O-dihydrogen phosphorothioate], which “Form by XRPD after short term slurry” value ([1]; listed as Rx100.L-Lysine salt) is on record?
Answer: The value was “no change in form”.

Question: What about the “Form by XRPD after short term slurry” value ([1]; listed as Rx100 crystalline sesqui-L-lysine salt) of the same molecule?
Answer: The value was “do not change in form”.

Question: And the necropsy findings (Sprague-Dawley rats; Phase I, rats given >50 mg/kg)?
Answer: Its necropsy findings is “scabs were observed on the skin overlying the injection site”.

Question: What about the body weight (Sprague-Dawley rats; Phase I, single SC dose >50 mg/kg, first 3 days post-dose) of the same molecule?
Answer: The body weight was “transient loss of body weight”.

Question: And the skin findings (Sprague-Dawley rats; Phase I, single SC doses of >10 mg/kg, beginning several days post-dose)?
Answer: The skin findings was “produced scabs”.

Question: What about the body weight (Sprague-Dawley rats; Phase II, 25 mg/kg/day for seven consecutive days) of the same molecule?
Answer: Its body weight is “transient body weight loss was followed by rebound”.

Question: What about the necropsy findings (Sprague-Dawley rats; Phase II, 25 mg/kg/day for seven days) of the same molecule?
Answer: The necropsy findings was “small organ size was noted for the epididymis, prostate, seminal vesicle, and testis of all three males”.

Question: And the dosing site findings (Sprague-Dawley rats; Phase II, 25 mg/kg/day for seven days, first two dosing sites)?
Answer: Its dosing site findings is “scabs developed with delayed onset”.

Question: And the Cmax ([2]; IR males, listed as Rx100.Lysine)?
Answer: The Cmax was 299 ng/mL.

Question: And the AUC(0-inf) ([2]; both sexes, C57BL/6, mouse, plasma, sc, + IR (irradiated mice), whole group (not split by gender))?
Answer: Its AUC(0-inf) is 1210 ng·h/mL.

Question: What about the Cmax ([2]; both sexes, C57BL/6, mouse, plasma, sc, + IR (irradiated mice), whole group (not split by gender), read-out: Cmax) of the same molecule?
Answer: Its Cmax is 323 ng/mL.

Question: And the AUC(0-inf) ([2]; both sexes, C57BL/6, mouse, plasma, sc, healthy mice, whole group (not split by gender))?
Answer: Its AUC(0-inf) is 1660 ng·h/mL.

Question: What about the Cmax ([2]; both sexes, C57BL/6, mouse, plasma, sc, healthy mice, whole group (not split by gender), read-out: Cmax) of the same molecule?
Answer: Its Cmax is 512 ng/mL.

Question: And the AUC ([2]; female, C57BL/6, mouse, plasma, sc, IR females, read-out: AUC)?
Answer: The AUC was 1240 ng·h/mL.

Question: And the Cmax ([2]; female, C57BL/6, mouse, plasma, sc, IR females, read-out: Cmax)?
Answer: Its Cmax is 355 ng/mL.

Question: And the Cmax ([2]; female, C57BL/6, mouse, plasma, sc, healthy females, read-out: Cmax)?
Answer: Its Cmax is 455 ng/mL.

Question: What about the AUC ([2]; female, C57BL/6, mouse, plasma, sc, healthy females, read-out: exposure (AUC)) of the same molecule?
Answer: Its AUC is 1590 ng·h/mL.

Question: And the AUC(0-inf) ([2]; female, C57BL/6, mouse, plasma, sc, healthy mice, F)?
Answer: Its AUC(0-inf) is 1590 ng·h/mL.

Question: And the Cmax ([2]; female, C57BL/6, mouse, plasma, sc, healthy mice, F, read-out: Cmax)?
Answer: Its Cmax is 454 ng/mL.

Question: What about the AUC(0-inf) ([2]; female, C57BL/6, mouse, plasma, sc, irradiated mice (15.6 Gy, dosed 26 ± 2 h after), F) of the same molecule?
Answer: Its AUC(0-inf) is 1240 ng·h/mL.

Question: What about the Cmax ([2]; female, C57BL/6, mouse, plasma, sc, irradiated mice (15.6 Gy, dosed 26 ± 2 h after), F, read-out: Cmax) of the same molecule?
Answer: The Cmax was 355 ng/mL.

Question: What about the AUC ([2]; male, C57BL/6, mouse, plasma, sc, IR males, read-out: AUC) of the same molecule?
Answer: Its AUC is 1170 ng·h/mL.

Question: What about the AUC ([2]; male, C57BL/6, mouse, plasma, sc, healthy males, read-out: AUC) of the same molecule?
Answer: The AUC was 1750 ng·h/mL.

Question: What about the Cmax ([2]; male, C57BL/6, mouse, plasma, sc, healthy males, read-out: Cmax) of the same molecule?
Answer: The Cmax was 570 ng/mL.

Question: What about the AUC(0-inf) ([2]; male, C57BL/6, mouse, plasma, sc, healthy mice, M) of the same molecule?
Answer: The AUC(0-inf) was 1750 ng·h/mL.

Question: And the Cmax ([2]; male, C57BL/6, mouse, plasma, sc, healthy mice, M, read-out: Cmax)?
Answer: Its Cmax is 570 ng/mL.

Question: And the AUC(0-inf) ([2]; male, C57BL/6, mouse, plasma, sc, irradiated mice (15.6 Gy, dosed 26 ± 2 h after), M)?
Answer: The AUC(0-inf) was 1170 ng·h/mL.

Question: What about the CLss_F [2, 3] of the same molecule?
Answer: The CLss_F was 13.822 mL/min/kg.

Question: And the HL_Lambda_z [2, 3]?
Answer: Its HL_Lambda_z is 1.44 h.

Question: And the Vz_F [2, 3]?
Answer: The Vz_F was 1.72242 L/kg.

Question: What about the CLss_F [2, 4] of the same molecule?
Answer: The CLss_F was 10.462 mL/min/kg.

Question: And the HL_Lambda_z [2, 4]?
Answer: Its HL_Lambda_z is 1.84 h.

Question: And the Vz_F [2, 4]?
Answer: The Vz_F was 1.66432 L/kg.

Question: What about the CLss_F [2, 5] of the same molecule?
Answer: The CLss_F was 9.5183 mL/min/kg.

Question: And the HL_Lambda_z [2, 5]?
Answer: The HL_Lambda_z was 1.91 h.

Question: And the Vz_F [2, 5]?
Answer: Its Vz_F is 1.57087 L/kg.

Question: And the CLss_F [2, 6]?
Answer: Its CLss_F is 10.032 mL/min/kg.

Question: And the HL_Lambda_z [2, 6]?
Answer: Its HL_Lambda_z is 1.16 h.

Question: And the Vz_F [2, 6]?
Answer: The Vz_F was 1.00622 L/kg.

Question: And the CLss_F [2, 7]?
Answer: The CLss_F was 13.466 mL/min/kg.

Question: What about the HL_Lambda_z [2, 7] of the same molecule?
Answer: Its HL_Lambda_z is 1.87 h.

Question: What about the Vz_F [2, 7] of the same molecule?
Answer: Its Vz_F is 2.17384 L/kg.

Question: And the CLss_F [2, 8]?
Answer: The CLss_F was 14.264 mL/min/kg.

Question: What about the Cmax [2, 8] of the same molecule?
Answer: Its Cmax is 298.75 ng/mL.

Question: And the HL_Lambda_z [2, 8]?
Answer: The HL_Lambda_z was 1.32 h.

Question: What about the Vz_F [2, 8] of the same molecule?
Answer: The Vz_F was 1.62547 L/kg.
